We go through two compounds from US5455241A, “Polycyclic compounds and processes for the preparation thereof” (Ciba-Geigy Corporation, priority 1993, dated 1995).

A word on the MTD: it is the highest dose tested that stayed within the study's limit of toxicity.

Like-named read-outs stand apart in the source and are kept apart here.

Data set [1] can be described thus: Stability in solution. The format is physicochemical.
Data set [2] in a line: Determination of the maximum tolerated dose (MTD). Particulars: mouse, in vivo, 3 female Balb/c mice per dose, within 7 days. How it is done: Example 11: Determination of the maximum tolerated dose (MTD) of N-[0-(tetrahydro-pyran-4-yl) -D-lactoyl]- staurosporin
3 female Balb/c mice per dose are treated i.p. or p.o. with N-[O]-(tetrahydropyran-4-yl)-D-lactoyl]-staurosporin in dimethyl sulfoxide […]/sodium chloride solution (see Example 10 for formulation). The dose is increased until animals succumb within 7 days.

The subject of data set [3] is human bladder tumours T24. Description: Anti-tumour activity in vivo, s.c. transplanted human bladder tumours T24 in hairless mice. Details: species or system human tumour in female Balb/c hairless mice. Particulars: 15 days. How it is done:
Female Balb/c hairless mice with s.c. transplanted human bladder tumours T24 are used to determine the anti-tumour activity. With the animals under peroral forene narcosis, approximately 25 mg of a solid tumour are placed under the skin on "the animals' left flank on day 0 and the small incised wound is closed by means of suture clips. On day 6 after the transplantation, the mice are divided at random into groups of 6 animals and treatment commences. The treatment is carried out for 15 days with peroral or intraperitoneal administration once daily of a compound of formula I in dimethyl sulfoxide/Tween 80/sodium chloride solution in the various doses. The tumours are measured twice a week with a slide gauge and the volume of the tumours is calculated. In this test, the peroral or intraperitoneal administration of 3 mg/kg daily of a compound of formula I brings about a reduction in the average tumour volume to from 10 to 15% of the tumour volume in the untreated control animals.
Example 10: Anti-tumour activity of N-[0-(tetrahydropyran-4-yl)-D-lactoyl]-staurosporin in vivo:
The substance is formulated as follows: 12.5 mg of active ingredient are dissolved in 0.25 ml of dimethyl sulfoxide and mixed with 50 μof Tween 80.4.7 ml of a 0.9% sodium chloride solution are then added and the whole is mixed thoroughly.
Female Balb/c hairless mice with s.c. transplanted human bladder tumours T24 are used to determine the anti-tumour activity. With the animals under peroral forene narcosis, approximately 25 mg of a solid tumour are placed under the skin on the animals' left flank on day 0 and the small incised wound is closed by means of suture clips. On day 6 after the transplantation, the mice are divided at random into groups of 6 animals and treatment commences. The treatment is carried out for 15 days with the administration once daily of the various doses. The tumours are measured twice a week with a slide gauge and the volume of the tumours is calculated. The results are compiled in the following Table in which "dose" is the daily dose, "admin." is the mode of administration, "exper." is experiment and "T/C %" is the percentage quotient of the values in the treated mice and the untreated control mice.

With `CO[C@@H]1[C@H](N(C)C(=O)COC2CCOCC2)C[C@H]2O[C@]1(C)n1c3ccccc3c3c4c(c5c6ccccc6n2c5c31)C(=O)NC4O` (stereo partly shown) [Example 7, N-[2-(tetrahydropyran-4-yl-oxy)-acetyl]-7-hydroxy-staurospo], in data set [1], the stability in solution entry is “unstable in solution”.
For `CO[C@@H]1[C@H](N(C)C(=O)[C@@H](C)OC2CCOCC2)C[C@H]2O[C@]1(C)n1c3ccccc3c3c4c(c5c6ccccc6n2c5c31)C(=O)NC4` [N-[O-(tetrahydropyran-4-yl)-D-lactoyl]-staurosporin], the MTD at 168 h was 31.2 mg/kg in data set [2] (ip, read-out: MTD (i.p.)) and 62.5 mg/kg in data set [2] (po, read-out: MTD (p.o.)). Further, the “average tumour volume [T/C %]” value in data set [3] (0.19 mg/kg daily i.p., Exper. 2) is given as 74%; in data set [3] (0.38 mg/kg daily i.p., Exper. 2), 62%; in data set [3] (0.75 mg/kg daily i.p., Exper. 2), 32%; in data set [3] (0.78 mg/kg daily p.o., Exper. 2), 58%; in data set [3] (1.50 mg/kg daily i.p., Exper. 1), 14%; in data set [3] (1.50 mg/kg daily i.p., Exper. 2), 19%. In addition, the “average tumour volume [T/C %]” value is given as 31% in data set [3] (1.56 mg/kg daily p.o., Exper. 2); 9% in data set [3] (3.00 mg/kg daily i.p., Exper. 1); 11% in data set [3] (3.00 mg/kg daily i.p., Exper. 2); 17% in data set [3] (3.13 mg/kg daily p.o., Exper. 1); 14% in data set [3] (3.13 mg/kg daily p.o., Exper. 2); 15% in data set [3] (6.25 mg/kg daily p.o., Exper. 1). For the same compound, the “average tumour volume [T/C %]” value in data set [3] (6.25 mg/kg daily p.o., Exper. 2) was found to be 12%.
